# Legend:
# Format in all cases: biochemical, Saccharomyces cerevisiae
# α-glucosidase [1] = experiment: α-glucosidase inhibition assay (PNPG substrate, OD 405 nm); details: for Inhibition rate: compound at 250 μM, 0.07 U/ml enzyme, 0.5 mM PNPG, pH 6.8, 37 °C; for IC50: more than eight concentrations, GraphPad Prism 7.0; for α-glucosidase inhibitory activity (in words): SAR discussion
# Description: The α-glucosidase inhibitory activity was determined on a Thermo Scientific Multiskan GO Microplate Reader. All compounds were dissolved in DMSO. p-Nitrophenol glucoside (PNPG) as a substrate and α-glucosidase (from Saccharomyces cerevisiae) were used for the bioassay. First, 0.7 U/ml α-glucosidase solution and 1 mmol/L PNPG solution in 0.1 M PBS (pH 6.8) were prepared. Next, 35 µl of 0.1 M PBS (pH 6.8), 10 µl of 0.7 U/ml α-glucosidase solution (final concentration: 0.07 U/ml), and 5 µl of sample solution were added to the 96-well plate. The mixture was pre-incubated for 10 min at 37 °C. Then, 50 µl of 1 mM PNPG (final concentration: 0.5 mM) was rapidly added to initiate the reaction. Then the 96-well plate was quickly transferred into the microplate reader, incubated at 37 °C for 30 min (1 min shake + 9 min incubation, repeated 3 times). After that, 50 µl of 1 M of Na2CO3 solution was added to each well to stop the reaction. The 96-well plate was quickly transferred into the microplate reader and shaken for 30 s. In the blank reference group, 5 µl DMSO replaced the sample solution, other operations were the same. The OD value was measured at 405 nm. The inhibition rate was calculated by Equation (1). (1) Inhibition rate (%) = [(A0−A1)/A0] × 100 where A0 is the OD of the control, and A1 is the OD of the sample. […] The IC50 values were calculated by GraphPad Prism 7.0 software.
# α-glucosidase [2] = experiment: Enzyme kinetic study, Lineweaver–Burk double-reciprocal plots; details: for Inhibition type: Lineweaver–Burk plots, PNPG 0.2-1 mM, enzyme 0.7 U/ml; for Ki: from plot of slope (Km/Vm) versus inhibitor concentration, PNPG substrate, read-out: Ki value (inhibitor binding with free enzyme)
# Description: The inhibition type of the enzyme was assayed by Lineweaver–Burk plots. A series of diluted inhibitor solutions was prepared, at constant α-glucosidase concentration (0.7 U/ml). The inhibition rates were measured by the above method with different concentrations of PNPG (1, 0.5, 0.4, 0.3, 0.25, and 0.2 mM). […] The kinetic data were expressed by Lineweaver–Burk double-reciprocal plots. […] Thus, these compounds bind not only with the free α-glucosidase but also with the α-glucosidase-PNPG complex. In other words, they inhibit the function of α-glucosidase by not only directly binding to free enzyme (EI), but also by interfering with the formation of the α-glucosidase-PNPG (ES) intermediate through producing an α-glucosidase-PNPG-inhibitor (ESI) complex in a non-competitive manner. The inhibition constant for the inhibitor binding with free enzyme (Ki) was determined from a plot of the slope (Km/Vm) versus the inhibitor concentration (Figure 6(A2–D2)), and the inhibition constant for the inhibitor binding with enzyme–substrate complex (Kis) was obtained from the vertical intercept (1/Vm) versus the inhibitor concentration (Figure 6(A3–D3))[34]. The results are collected in Table 3: the Kis values of all of them are smaller than their Ki values, which mean that they have higher affinity with the enzyme-substrate complex than with the free enzyme.
# α-glucosidase [3] = experiment: Inhibition mechanism: enzyme activity versus enzyme concentration plots; details: constant PNPG 1 mM; α-glucosidase 0.00-1.05 U/ml
# Description: The inhibition mechanism of 10d, 12d, and 15d was determined by the following method: A series of diluted inhibitor solutions was prepared, at constant PNPG concentration (1 mM). The inhibition rates were measured by the above method with different concentrations of α-glucosidase (0.00, 0.35, 0.7, and 1.05 U/ml). […] Because the chemical structures of compounds 9d and 10d are very similar, compound 10d was selected as a representative in the next mechanism studies. The inhibition mechanism of the selected compounds 10d, 12d, 15d, and embelin on α-glucosidase was investigated using PNPG as the substrate. The relationship between enzyme activity and concentration in the presence of different concentrations of selected compounds was studied. […] Therefore, the inhibition of compounds 10d, 12d, 15d, and embelin against α-glucosidase is reversible.
Inhibition rate (α-glucosidase [1]) [%],Structure (SMILES),other results
4.3,COC1=CC(=O)C(O)=C(Cc2ccc3ccccc3c2)C1=O [Compound 16b],
14.9,CCCC1=C(OC)C(OC)=CC(=O)C1=O [Compound 4c],
99.4,CCCCCCCCCC1=C(O)C(=O)C=C(O)C1=O [Compound 7d],IC50 (α-glucosidase [1]): 5.7 µM
10.4,CCCC1=C(O)C(=O)C=C(OC)C1=O [Compound 4b],
12.0,CCCCCCCCCCCC1=C(O)C(=O)C=C(OC)C1=O [Compound 8b],
18.1,CCCC1=C(O)C(=O)C=C(O)C1=O [Compound 4d],α-glucosidase inhibitory activity (in words) (α-glucosidase [1]): very low inhibitory effect
16.1,CCCCCCCC1=C(OC)C(OC)=CC(=O)C1=O [Compound 6c],
37.2,COC1=CC(=O)C(=O)C(Cc2ccc3ccccc3c2)=C1OC [Compound 16c],
5.4,CCCCCCCC1=C(O)C(=O)C=C(OC)C1=O [Compound 6b],
2.6,COC1=CC(=O)C(O)=C(CCC(C)C)C1=O [Compound 11b],
100,CCCCCCCCCCCCCCCC1=C(O)C(=O)C=C(O)C1=O [Compound 10d],Inhibition type (α-glucosidase [2]): Mixed-type; Ki (α-glucosidase [2]): 1.24 µM; IC50 (α-glucosidase [1]): 1.8 µM; Inhibition mechanism (reversibility) (α-glucosidase [3]): reversible
14.3,COC1=CC(=O)C(O)=C(Cc2ccc(-c3ccccc3)cc2)C1=O [Compound 17b],
20.9,CCCCCCCCCC1=C(O)C(=O)C=C(OC)C1=O [Compound 7b],
0,COCCCC1=C(OC)C(OC)=CC(=O)C1=O [Compound 13c],
70.1,COC1=CC(=O)C(OC)=C(CCC2CCCCC2)C1=O [Compound 14a],
0.6,CCCCCCCCCCCC1=C(OC)C(OC)=CC(=O)C1=O [Compound 8c],
12.5,CCCCCCCCCCCC1=C(OC)C(=O)C=C(OC)C1=O [Compound 8a],
100,CCCCCCCCCCCCCC1=C(O)C(=O)C=C(O)C1=O [Compound 9d],IC50 (α-glucosidase [1]): 2.3 µM
80.8,CCCCCCCC1=C(O)C(=O)C=C(O)C1=O [Compound 6d],IC50 (α-glucosidase [1]): 127 µM
0,COCCCC1=C(O)C(=O)C=C(OC)C1=O [Compound 13b],
99.5,O=C1C=C(O)C(=O)C(Cc2ccc(-c3ccccc3)cc2)=C1O [Compound 17d],IC50 (α-glucosidase [1]): 11.2 µM
85.2,O=C1C=C(O)C(=O)C(CCC2CCCCC2)=C1O [Compound 14d],IC50 (α-glucosidase [1]): 45.3 µM

Inhibition rate (α-glucosidase [1]) [%],Structure (SMILES),other results
71.1,COC1=CC(=O)C(O)=C(CCC2CCCCC2)C1=O [Compound 14b],
81.4,O=C1C=C(O)C(=O)C(Cc2ccc3ccccc3c2)=C1O [Compound 16d],IC50 (α-glucosidase [1]): 74.8 µM
0,COCCCC1=C(O)C(=O)C=C(O)C1=O [Compound 13d],
59.7,COC1=CC(=O)C(=O)C(Cc2ccc(-c3ccccc3)cc2)=C1OC [Compound 17c],
100,O=C1C=C(O)C(=O)C(CCCCCCCc2ccccc2)=C1O [Compound 15d],Inhibition type (α-glucosidase [2]): Mixed-type; Ki (α-glucosidase [2]): 2.4 µM; IC50 (α-glucosidase [1]): 3.6 µM; Inhibition mechanism (reversibility) (α-glucosidase [3]): reversible
3.3,COC1=CC(=O)C(=O)C(CCC(C)C)=C1OC [Compound 11c],
33.2,CCCCCCCCCC1=C(OC)C(OC)=CC(=O)C1=O [Compound 7c],
0,COCCCC1=C(OC)C(=O)C=C(OC)C1=O [Compound 13a],
74.7,COC1=CC(=O)C(=O)C(CCC2CCCCC2)=C1OC [Compound 14c],
5.1,COC1=CC(=O)C(OC)=C(Cc2ccc(-c3ccccc3)cc2)C1=O [Compound 17a],
9.0,CCCC1=C(OC)C(=O)C=C(OC)C1=O [Compound 4a],
1.5,CCCCCCCC1=C(OC)C(=O)C=C(OC)C1=O [Compound 6a],
13.5,CCCCCCCCCC1=C(OC)C(=O)C=C(OC)C1=O [Compound 7a],
11.5,CCCCCC1=C(OC)C(=O)C=C(OC)C1=O [Compound 5a],
16.4,CCCCCC1=C(OC)C(OC)=CC(=O)C1=O [Compound 5c],
37.6,CC(C)CCC1=C(O)C(=O)C=C(O)C1=O [Compound 11d],
100,CC(C)CCCC(C)CCC1=C(O)C(=O)C=C(O)C1=O (centres unmarked) [Compound 12d],Inhibition type (α-glucosidase [2]): Mixed-type; Ki (α-glucosidase [2]): 3.71 µM; IC50 (α-glucosidase [1]): 3.3 µM; Inhibition mechanism (reversibility) (α-glucosidase [3]): reversible
14.9,CCCCCC1=C(O)C(=O)C=C(OC)C1=O [Compound 5b],
1.5,COC1=CC(=O)C(OC)=C(CCC(C)C)C1=O [Compound 11a],
6.0,COC1=CC(=O)C(OC)=C(Cc2ccc3ccccc3c2)C1=O [Compound 16a],
19.0,CCCCCC1=C(O)C(=O)C=C(O)C1=O [Compound 5d],α-glucosidase inhibitory activity (in words) (α-glucosidase [1]): very low inhibitory effect
100,"CCCCCCCCCCCC1=C(O)C(=O)C=C(O)C1=O [Embelin, 2,5-dihydroxy-3-undecyl-1,4-benzoquinone]",Inhibition type (α-glucosidase [2]): Mixed-type; Ki (α-glucosidase [2]): 3.72 µM; IC50 (α-glucosidase [1]): 4.2 µM; Inhibition mechanism (reversibility) (α-glucosidase [3]): reversible

# Reference: publication PMC7006637, “Design, synthesis and α-glucosidase inhibition study of novel embelin derivatives” (Journal of Enzyme Inhibition and Medicinal Chemistry, 2020)
